Laboratory results published in ChEMBL document CHEMBL3137667, “[Drug-induced liver injury; fourteenth updated edition of the bibliographic database of liver injuries and related drugs]” (Gastroenterol Clin Biol, 2004).

Experiments:
[1] = human
[2] = human; remark: listed apart in the source
[3] = human, serum
[4] = human, serum; remark: listed apart in the source
[5] = Comments (NB not yet translated). [column 'COMMENTAIRES' in source]; conditions: human
[6] = Highest frequency of acute liver toxicity observed during clinical trials, expressed as a percentage. [column '% AIGUE' in source]; conditions: human
[7] = human; remark: listed apart in the source
[8] = human; remark: listed apart in the source
[9] = Times to onset, minimal and maximal, observed in the indexed observations. [column 'DELAI' in source]; conditions: human
[10] = human, serum, 4383 h
[11] = human; remark: listed apart in the source
[12] = Highest frequency of moderate liver toxicity observed during clinical trials, expressed as a percentage. [column '% BIOL' in source]; conditions: human
[13] = human; remark: listed apart in the source
[14] = human; remark: listed apart in the source
[15] = human; remark: listed apart in the source
[16] = human; remark: listed apart in the source
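For Hepatotoxicity (association with vascular disease) in this document: count of indexed literature references reporting vascular liver injury in humans, e.g. peliosis hepatitis, hepatic veno-occlusive disease or Budd-Chiari syndrome.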
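For Hepatotoxicity (benign tumour) in this document: value is a count of indexed literature references citing a benign tumour confirmed by histopathology.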
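For Hepatotoxicity (choleostasis) in this document: human cholestatic liver injury, shown by histopathology or by peak ALT or AST elevation over alkaline phosphatase ratio below 2, value counts indexed literature reports.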
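For Hepatotoxicity (chronic liver disease) in this document: chronic liver injury confirmed by histopathology or persistently raised serum aminotransferase activity beyond 6 months, value given as the count of indexed literature references.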
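For Hepatotoxicity (cirrhosis) in this document: value is a count of indexed literature references reporting cirrhosis confirmed by histopathology.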
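For Hepatotoxicity (cytolytic) in this document: human cytolytic liver injury, shown by histopathology or by a ratio above 5 of peak ALT or AST elevation to alkaline phosphatase elevation, value counts indexed references.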
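For Hepatotoxicity (granulomatous hepatitis) in this document: value is a count of indexed literature references reporting granulomatous liver disease confirmed by histopathology.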
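For Hepatotoxicity (malignant tumour) in this document: malignant tumour confirmed by histopathology, value gives the count of indexed literature references reporting it.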
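For Hepatotoxicity (severe hepatitis) in this document: human clinical data: severe hepatitis, meaning potentially life-threatening liver failure or clinically observed cases, the value counts how many indexed literature references report it.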
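For Hepatotoxicity (steatosis) in this document: steatosis confirmed by histopathology, value is the count of indexed references.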

| Compound | Hepatotoxicity (cirrhosis) [1] | Hepatotoxicity (benign tumour) [2] | Hepatotoxicity (moderate) [3] | Hepatotoxicity (acute) [4] | Hepatotoxicity (comment) [5] | Hepatotoxicity (acute) [6] [%] | Hepatotoxicity (severe hepatitis) [7] | Hepatotoxicity (association with vascular disease) [8] | Hepatotoxicity (time to onset) [9] | Hepatotoxicity (chronic liver disease) [10] | Hepatotoxicity (granulomatous hepatitis) [11] | Hepatotoxicity (moderate) [12] [%] | Hepatotoxicity (malignant tumour) [13] | Hepatotoxicity (cytolytic) [14] | Hepatotoxicity (choleostasis) [15] | Hepatotoxicity (steatosis) [16] | Hepatotoxicity (acute) ([6]; Liver) [%] | Hepatotoxicity (severe hepatitis) ([7]; Liver) | Hepatotoxicity (moderate) ([12]; Liver) [%] | Hepatotoxicity (granulomatous hepatitis) ([11]; Liver) |
| --- | --- | --- | --- | --- | --- | --- | --- | --- | --- | --- | --- | --- | --- | --- | --- | --- | --- | --- | --- | --- |
| ETANERCEPT | 0 | 0 | 2 | 0 | CHOLECYSTITE | 0 | 0 | 0 | 4 weeks - 14 weeks | 0 | 0 | 5 | 0 | 0 | 0 | 0 |  |  |  |  |
| Nc1ncnc2c1ncn2[C@@H]1O[C@H](CO)[C@@H](O)[C@@H]1O [VIDARABINE] | 0 | 0 | 5 | 0 | AGGRAVATION_HEPATITE_VIRALE | 0 | 1 | 0 | 1 week | 0 | 0 | 17 | 0 | 0 | 0 | 0 |  |  |  |  |
| CCOC(=O)C1=C(C)NC(C)=C(C(=O)OC)C1c1cccc([N+](=O)[O-])c1 (stereo unspecified) [NITRENDIPINE] | 0 | 0 | 2 | 1 | AC_ANTI-N | 0 | 0 | 0 | 3 weeks | 0 | 0 | 18.2 | 0 | 0 | 0 | 0 |  |  |  |  |
| CN1CCN(CCCN2c3ccccc3Sc3ccc(C(F)(F)F)cc32)CC1 [TRIFLUOPERAZINE] | 1 | 0 | 2 | 5 | #CBP | 0 | 0 | 0 | 2 weeks - 8 years | 0 | 0 | 0 | 0 | 0 | 4 | 0 |  |  |  |  |
| CCN1CCCC1CNC(=O)c1cc(S(N)(=O)=O)ccc1OC (stereo unspecified) [SULPIRIDE] | 0 | 0 | 3 | 3 | DUCTOPENIE | 0 | 1 | 0 | 1 week - 3 months | 0 | 0 | 4 | 0 | 0 | 1 | 0 |  |  |  |  |
| INFLIXIMAB | 0 | 0 | 3 | 8 | CHOLANGITE CHOLECYSTITE REACTIVATION_HVB | 0 | 2 | 0 | 19 days - 19 months | 0 | 0 | 31.3 | 0 | 4 | 2 | 0 |  |  |  |  |
| Cc1ccc(O)c2ncccc12 [TILIQUINOL] | 0 | 0 | 0 | 1 | CHOLANGITE | 0 | 0 | 0 | 4 days | 0 | 1 | 0 | 0 | 0 | 0 | 0 |  |  |  |  |
| Cc1cc(Br)c(O)c2ncccc12 [TILBROQUINOL] | 0 | 0 | 0 | 1 | CHOLANGITE | 0 | 0 | 0 | 4 days | 0 | 1 | 0 | 0 | 0 | 0 | 0 |  |  |  |  |
| GONADOTROPIN, SERUM | 0 | 1 | 0 | 1 | HNF | 0 | 0 | 0 | 39 days - 6 months | 0 | 0 | 0 | 0 | 1 | 0 | 0 |  |  |  |  |
| CSc1ccc2c(c1)N(CCC1CCCCN1C)c1ccccc1S2 (stereo unspecified) [THIORIDAZINE] | 0 | 0 | 2 | 5 | RC/CHLORPROMAZINE |  |  | 0 | 1 week - 1 year | 1 | 0 |  | 0 | 2 | 5 | 0 | 0 | 1 | 0 |  |
| CC/C(=C(/CC)c1ccc(O)cc1)c1ccc(O)cc1 [DIETHYLSTILBESTROL] | 0 | 0 | 3 | 5 | ANGIOSARCOME RC/TAMOXIFENE | 0 | 1 | 1 | 4 days - 15 years | 0 |  | 19 | 6 | 0 | 4 | 0 |  |  |  | 0 |
